The text below walks through data of US10954305B2 (Immunomedics, Inc., priority 2016, dated 2021).

One series concerns NCI-N87-S120. Kind of series: in vitro cytotoxicity, MTS (Table 14). In kind it is cell-based, human. To be noted: for effect on SN-38 toxicity in S-120 cells: both S-120 cells, in vitro; for reversal of SN-38 resistance vs Ko143 and YHO-13351: limited studies. The method, then:
(§1) Each cell line was maintained according to the recommendations of ATCC and routinely tested for mycoplasma using MYCOALERT™ mycoplasma detection kits (Lonza). The two SN-38-resistant cell lines, MDA-MB-231-5120 and NCI-N87-S120, were established by continuous exposure of the parental cells to stepwise increased concentrations of SN-38 from 6 pM to 120 nM over a period of approximately 2 years. In addition, a revertant cell line (NCI-N87-S120-REV) was obtained after culturing NCI-N87-S120 in SN-38-free medium for 4 months. The S-120 clones were maintained in medium containing 120 nM of SN-38, but cultured in drug-free medium for 7 to 14 days prior to any experiment. All cells were grown at 37° C. as monolayer cultures in a humidified atmosphere of 5% CO2.
(§2) In Vitro cytotoxicity. […] Briefly, cells were placed into wells of 96-well plates. […] From these working solutions, serial 5-fold dilutions were made in sterile media to yield final concentrations between 500 and 0.0064 nM in test wells. […] Cytotoxicity was measured as a percent of growth relative to untreated cells. Dose-response curves were generated from the mean of triplicate determinations, and IC50 values were calculated using GraphPad Prism Software V 6.05 (Advanced Graphics Software).
(§3) The effect of ABCG2 inhibitors on the IC50 values of SN-38 for the parental and resistant cell lines was determined from the respective dose-response curves obtained for SN-38 in the presence of a non-toxic concentration of ABCG2 inhibitors.

The subject of the next series is Calu-3 tumors. Briefly: Calu-3 xenograft therapy. The class given is in vivo, nude mice. To be noted: 0.4 mg/kg SN-38.
For the next series, the system named is Capan-1 tumors. Kind of series: CL2 vs CL2A linker, Capan-1 xenograft. In kind it is in vivo, mice. Conditions: 0.2 mg/kg SN-38 twice weekly × 4 weeks. As for the experimental part:
FIG. 4C. […] Capan-1 mice (N=10) were treated with 0.2 mg/kg ADC and tumors measured weekly.

In a further series the target is ABCG2 (Homo sapiens, UniProt Q9UNQ0). To be noted: S-120 cells, FTC 10 μM.
The test system of a further series is BxPC-3. Briefly: dsDNA breaks, γH2AX flow cytometry. In kind it is cell-based, human. To be noted: 20 μg/ml for 30 min. The method, then: For drug activity testing, BxPC-3 cells were seeded in 6-well plates at 5×10^5 cells/well and held at 37° C. overnight. […] The following morning, cells were trypsinized briefly, spun down, stained with Fixable Viability Stain 450 (BD Biosciences, San Jose, Calif.), washed with 1% BSA-PBS, and then fixed in 4% formalin for 15 min, washed again and permeabilized in 0.15% Triton-X100 in PBS for another 15 min. After washing twice with 1% BSA-PBS, cells were incubated with mouse anti-γH2AX-AF488 (EMD Millipore Corporation, Temecula, Calif.) for 45 min at 4° C. The signal intensity of γH2AX was measured by flow cytometry using a BD FACSCanto (BD Biosciences, San Jose, Calif.).
A general note: In flow cytometry, cells or beads pass a laser one at a time.

Series [1] relates to SK-MES-1 human squamous cell lung tumors. Briefly: SK-MES-1 xenograft therapy. The class given is in vivo, nude mice. To be noted: irinotecan at MTD.
The target in series [2] is T1, Trop-2 on multiple cell lines (Homo sapiens, UniProt P09758).
T1 construct: endogenous in cells; host or cells: human solid tumour cell lines
T1 sequence (P09758 27-323): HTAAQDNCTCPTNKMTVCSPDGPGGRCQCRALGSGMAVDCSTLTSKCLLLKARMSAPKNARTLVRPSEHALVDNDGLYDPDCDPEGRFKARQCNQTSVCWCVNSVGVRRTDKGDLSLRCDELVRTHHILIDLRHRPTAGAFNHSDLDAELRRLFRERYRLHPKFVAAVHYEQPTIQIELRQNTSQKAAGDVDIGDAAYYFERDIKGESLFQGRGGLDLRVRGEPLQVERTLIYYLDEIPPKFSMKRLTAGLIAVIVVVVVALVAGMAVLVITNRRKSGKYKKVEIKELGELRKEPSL
Briefly: in vitro cell binding. The method, then:
LumiGLO Chemiluminescent Substrate System (KPL, Gaithersberg, Md.) was used to detect antibody binding to cells. Briefly, cells were plated into a 96 black-well, flat-clear-bottom plate overnight. Antibodies were serially diluted 1:2 and added in triplicate, yielding a concentration range from 0.03 to 66.7 nM. After incubating for 1 h at 4° C., the media was removed and the cells washed with fresh cold media followed by the addition of a 1:20,000 dilution of goat-antihuman horseradish peroxidase-conjugated secondary antibody (Jackson Immunoresearch, West Grove, Pa.) for 1 h at 4° C. The plates were again washed before the addition of the LumiGLO reagent. Plates were read for luminescence using an Envision plate reader (Perkin Elmer, Boston Mass.). Data were analyzed by non-linear regression to determine the equilibrium dissociation constant (KD). Statistical comparisons of KD-values were made with Prism GraphPad Software (v4.03) (Advanced Graphics Software, Inc.; Encinitas, Calif.) using an F-Test on the best-fit curves for the data. Significance was set at P<0.05.

Another series deals with NCI-N87. Kind of series: in vitro cytotoxicity, MTS (Table 14). Conditions: Homo sapiens, YHO-13351 2 μM, Ko143 1 μM where added. The class given is cell-based. As for the experimental part:
as §1
In Vitro cytotoxicity. […] Briefly, cells were placed into wells of 96-well plates. […] Cytotoxicity was measured as a percent of growth relative to untreated cells. Dose-response curves were generated from the mean of triplicate determinations, and IC50 values were calculated using GraphPad Prism Software V 6.05 (Advanced Graphics Software).
as §3

A further series has as its system MDA-MB-231. Kind of series: in vitro cytotoxicity, MTS (Table 14). The class given is cell-based, human. To be noted: Homo sapiens, YHO-13351 2 μM where added. The method, then: as §1, §2, §3
Another series has as its system MDA-MB-231-S120. Kind of series: in vitro cytotoxicity, MTS (Table 14). The class given is cell-based, human. The method, then: as §1, §2, §3
For the next series, the system named is COLO 205 tumors. Briefly: COLO 205 xenograft therapy. Conditions: 24 mg SN-38/kg, q2dx5.
Another series concerns MDA-MB-468 TNBC tumors. Briefly: MDA-MB-468 TNBC xenograft therapy. In kind it is in vivo, nude mice. To be noted: one animal each, tumors progressed after irinotecan.
For series [3] the following is noted: monotherapy weekly or once every 3 weeks; cited from earlier work.
A further series has as its system NCI-N87-S-120 tumors. Kind of series: SN-38-resistant xenograft therapy. To be noted: IMMU-132 0.5 mg twice weekly ×4 weeks; irinotecan 40 mg/kg q2dx5.
A further series can be described thus: in vivo. Conditions: nude, mouse, 773 ug.
In another series the test system is Capan-1 xenografts. Briefly: combined radioimmunotherapy and ADC, Capan-1 xenograft. The class given is in vivo, nude mice. From the text: The present study examined combinations of ^90Y-hPAM4 IgG with RS7-SN-38 in nude mice bearing 0.35 cm^3 subcutaneous xenografts of the human pancreatic cancer cell line, Capan-1. […] These studies provide the first evidence that combined radioimmunotherapy and ADC enhances efficacy at safe doses.

Chain of ABCG2 (Q9UNQ0 whole entry): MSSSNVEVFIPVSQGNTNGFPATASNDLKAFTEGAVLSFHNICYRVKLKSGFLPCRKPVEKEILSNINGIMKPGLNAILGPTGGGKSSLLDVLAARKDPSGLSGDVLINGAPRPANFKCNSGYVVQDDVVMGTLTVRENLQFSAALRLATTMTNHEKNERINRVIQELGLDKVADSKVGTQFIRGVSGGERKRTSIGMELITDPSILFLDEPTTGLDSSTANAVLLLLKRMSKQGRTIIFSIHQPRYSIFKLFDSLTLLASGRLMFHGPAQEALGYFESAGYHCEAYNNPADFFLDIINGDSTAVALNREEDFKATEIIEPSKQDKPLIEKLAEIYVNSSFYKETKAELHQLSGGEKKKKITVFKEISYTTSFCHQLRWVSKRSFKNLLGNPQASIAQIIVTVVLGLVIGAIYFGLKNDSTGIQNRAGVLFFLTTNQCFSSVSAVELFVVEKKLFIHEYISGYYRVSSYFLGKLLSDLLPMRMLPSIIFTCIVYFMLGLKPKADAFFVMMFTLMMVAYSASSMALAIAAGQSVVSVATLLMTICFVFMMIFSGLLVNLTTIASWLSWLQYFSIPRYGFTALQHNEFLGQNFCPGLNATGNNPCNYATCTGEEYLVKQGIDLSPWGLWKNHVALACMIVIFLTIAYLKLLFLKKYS

In the case of `COc1cc2c(cc1OC)CN(CCc1ccc(NC(=O)c3cccc4c(=O)c5cccc(OC)c5[nH]c34)cc1)CC2` [GF120918], in the series with NCI-N87-S120, the “effect on SN-38 toxicity in S-120 cells” value was “restored toxicity of SN-38”; the “reversal of SN-38 resistance vs Ko143 and YHO-13351” value (shortened to “reversal … vs Ko143 and YHO-13351”) was “comparable or less potency”.

Consider hRS7-CL2-SN-38, for which, in the series on Calu-3 tumors, the “response at higher dose” value is given as “remained tumor-free until the end of the study on day 147”. Further, in the series on Capan-1 tumors, the “mice tumor-free at end of study (day 140)” value is recorded as 40%.

With `CCc1c2c(nc3ccc(O[C@@H]4O[C@H](C(=O)O)[C@@H](O)[C@H](O)[C@H]4O)cc13)-c1cc3c(c(=O)n1C2)COC(=O)[C@]3(O)CC` [SN-38G (5 min - 6 h)], the AUC in “FIG. 12” is 11.6 (µg/mL·h).

As for `CCN(CC)CC(=O)OC1CCN(c2ccc(/C=C(\C#N)c3ccc(OC)c(OC)c3)s2)CC1.CS(=O)(=O)O` [YHO-13351], in the series with NCI-N87-S120, the “effect on SN-38 toxicity in S-120 cells” value was “restored toxicity of SN-38”.

`COc1ccc2c3c([nH]c2c1)[C@H](C=C(C)C)N1C(=O)[C@@H]2CCCN2C(=O)[C@@H]1C3` [FTC]: the “reduction of intracellular PhA on omission of FTC” value on ABCG2 is “greater than 95%”. For the same molecule, in the series with NCI-N87-S120, the “effect on SN-38 toxicity in S-120 cells” value is “restored toxicity of SN-38”; the “reversal … vs Ko143 and YHO-13351” value is on record as “comparable or less potency”.

For hA20-CL2A-SN-38 [reference compound], the “mice tumor-free at end of study (day 140)” value with Capan-1 tumors stood at 20%. In addition, the “Mean Fluorescence Intensity (γH2AX)” value in the series with BxPC-3 is given as 2246 ± 58. In addition, the “Percent Positive (γH2AX)” value in the series on BxPC-3 (listed as hA20-SN-38) is reported as 12.7 ± 2.4%. The “antitumor effect vs specific conjugate” value in series [1] is on record as “the same antitumor effects as the specific hRS7-SN-38 conjugate”.

`CCc1c2c(nc3ccc(O)cc13)-c1cc3c(c(=O)n1C2)COC(=O)[C@]3(O)CC` [SN-38 (5 min - 2 h)]: the AUC in the series “FIG. 12” was 3.9 (µg/mL·h).

Turning to “hRS7-NEM: hRS7 treated with TCEP and conjugated with N-ethylmaleimide [reference compound]”, the KD entry in series [2] was “in the sub-nanomolar range”.

Regarding `CC(=O)O[C@H]1C(=O)[C@@]2(C)[C@H]([C@H](OC(=O)c3ccccc3)[C@]3(O)C[C@H](OC(=O)[C@H](O)[C@@H](NC(=O)c4ccccc4)c4ccccc4)C(C)=C1C3(C)C)[C@]1(OC(C)=O)CO[C@@H]1C[C@@H]2O` [Paclitaxel], the IC50 in the series on NCI-N87 was 7.9 ± 4 nM; in the series on NCI-N87-S120 (Homo sapiens, NCI-N87-S120, YHO-13351 2 μM, Ko143 1 μM where added), 8.6 ± 6.5 nM; with MDA-MB-231 it was 2.5 ± 0.1 nM; in the series on MDA-MB-231-S120 (Homo sapiens, MDA-MB-231-S120, YHO-13351 2 μM where added) it was 3.2 ± 0.7 nM. Moreover, the “RF (resistance factor)” value came out at 1.1 in the series on NCI-N87-S120 (IC50 mean of NCI-N87-S120 / NCI-N87) and 1.3 in the series with MDA-MB-231-S120 (IC50 mean of MDA-MB-231-S120 / MDA-MB-231).

On to cyclosporine A, for which the “reversal … vs Ko143 and YHO-13351” value in the series with NCI-N87-S120 was “comparable or less potency”.

On to `CCc1c2c(nc3ccc(OC(=O)N4CCC(N5CCCCC5)CC4)cc13)-c1cc3c(c(=O)n1C2)COC(=O)[C@]3(O)CC` [irinotecan, reference compound], for which the “efficacy at MTD” value with COLO 205 tumors is reported as “as effective as hRS7-CL2-SN-38”. Also, in the series on MDA-MB-468 TNBC tumors, the “decrease in tumor size on re-treatment” value stood at 23%. Moreover, the “grade 3 and 4 neutropenia incidence” value in series [3] is 14 to 26%. Besides, the survival benefit result in the series on NCI-N87-S-120 tumors is reported as “no significant survival benefit”. For the same molecule, in the series “in vivo”, the AUC was found to be 21000 ng·h/mL. Moreover, in series [1], the “antitumor effect vs specific conjugate” value was “the same antitumor effects as the specific hRS7-SN-38 conjugate”.

B1: ^90Y-hPAM4 (conjugate, chains of the INN, looked up)
VH: QVQLQQSGAEVKKPGASVKVSCEASGYTFPSYVLHWVKQAPGQGLEWIGYINPYNDGTQYNEKFKGKATLTRDTSINTAYMELSRLRSDDTAVYYCARGFGGSYGFAYWGQGTLVTVSS
VL: DIQLTQSPSSLSASVGDRVTMTCSASSSVSSSYLYWYQQKPGKAPKLWIYSTSNLASGVPARFSGSGSGTDFTLTISSLQPEDSASYFCHQWNRYPYTFGGGTRLEIK
modifications: 90Y radiolabel
Take B1: in the series with Capan-1 xenografts (75 μCi alone), the “mice tumor-free after 20 weeks” value is reported as 1 of 10. For the same molecule, in the series with Capan-1 xenografts (130 μCi RAIT alone), the animals tumor-free is listed as 5 of 10.

B2: hPAM4: unconjugated humanized PAM4 anti-MUC5ac antibody (antibody, chains of the INN, looked up, V domains shown)
VH: QVQLQQSGAEVKKPGASVKVSCEASGYTFPSYVLHWVKQAPGQGLEWIGYINPYNDGTQYNEKFKGKATLTRDTSINTAYMELSRLRSDDTAVYYCARGFGGSYGFAYWGQGTLVTVSS
VL: DIQLTQSPSSLSASVGDRVTMTCSASSSVSSSYLYWYQQKPGKAPKLWIYSTSNLASGVPARFSGSGSGTDFTLTISSLQPEDSASYFCHQWNRYPYTFGGGTRLEIK
With B2, the “anti-tumor activity of unconjugated antibody” value with Capan-1 xenografts (given alone) is “Neither unconjugated hPAM4 nor hRS7 antibodies had anti-tumor activity when given alone”.

As a reminder, the IC50 is the midpoint of a concentration-inhibition curve. A higher IC50 goes with lower potency.
